Starred links: 1 amine or outer side, 2 acyl side, 3 side chain; linkers in the order of their positions; H or OH if unused. Positions of bridges follow the written chain, without caps; N, C: chain ends. Non-standard residues stand in square brackets, D forms with d. Residues, ends and D or L forms follow the SMILES beside them. X1 = O=C(O)CCCCCCCCCCCCCCCCCCC(=O)N[C@@H](CCCCNC(=O)COCCOCCNC(=O)COCCOCCNC(=O)CCC(=O)N(CCNC(=O)C[*:1])CCNC(=O)C[*:2])C(=O)O; NMeR = CN[C@@H](CCCNC(=N)N)C(=O)O; Hyp = O=C(O)[C@@H]1C[C@@H](O)CN1; αMeK = C[C@](N)(CCCCN)C(=O)O; Aib = CC(C)(N)C(=O)O
Experiments:
AMY3R = molecular target: T1, AMY3R (Homo sapiens, UniProt P30988); assay: HTRF cAMP assay, AMY3R; format: cell-based; details: HEK293/pGM-CREB-L-Luc/AMY3R pool, read-out: IC50 of receptor AMY3R
T1 construct: expressed in transfected cells
T1 sequence (P30988 25-474): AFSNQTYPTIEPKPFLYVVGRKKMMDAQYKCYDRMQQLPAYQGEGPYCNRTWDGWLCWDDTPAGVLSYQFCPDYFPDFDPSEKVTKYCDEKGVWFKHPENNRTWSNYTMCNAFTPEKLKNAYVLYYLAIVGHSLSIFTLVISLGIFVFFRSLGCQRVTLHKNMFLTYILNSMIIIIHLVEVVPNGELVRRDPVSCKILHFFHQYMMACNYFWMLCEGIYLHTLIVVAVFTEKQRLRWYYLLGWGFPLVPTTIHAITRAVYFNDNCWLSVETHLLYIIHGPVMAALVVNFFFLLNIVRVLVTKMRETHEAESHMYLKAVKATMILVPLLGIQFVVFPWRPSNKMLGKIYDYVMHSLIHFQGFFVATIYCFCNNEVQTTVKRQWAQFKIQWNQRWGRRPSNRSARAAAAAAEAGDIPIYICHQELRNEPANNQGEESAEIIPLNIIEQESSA
T1 sequence (O60896 24-148 partner): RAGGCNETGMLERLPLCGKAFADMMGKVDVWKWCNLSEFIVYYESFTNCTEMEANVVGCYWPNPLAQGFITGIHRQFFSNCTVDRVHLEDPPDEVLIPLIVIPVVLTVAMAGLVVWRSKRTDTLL
Description: (§1) 2. The polypeptide derivatives prepared in Example 1 and Example 2 of the present disclosure can bind to the target AMYR and CTR receptors on the cell membrane, activate the receptors and release cAMP. Therefore, the activity of the analyte can be determined by using an HTRF (homogeneous time-resolved fluorescence) method and using a cAMP detection kit. The specific steps were as follows:
(§2) A stable transfected cell line of HEK293/pGM-CREB-L-Luc/AMY3R pool and HEK293/pGM-CREB-L-Luc/CTR pool was constructed. The polypeptide derivatives (i.e., AMY-001 to AMY-041) prepared in Examples 1 and 2 were subjected to 5-fold serial dilution from a maximum of 1000 nM to prepare a dilution series containing 8 to 11 concentration gradients. Cagrilintide and sCT were selected as positive controls for testing, and a dilution series was prepared according to the same method for testing. The test cell lines were selected and treated with cAMP-specific trypsin for digestion, and then suspended with 3 mL of serum-free DMEM medium by pipetting, and the cells were counted. 5 μL of IBMX (prepared with serum-free DMEM medium, 0.5 mM) and test cells (5 μL/7500 cells/well) were sequentially added to a 384-well plate, incubated under the conditions of 37° C., 5% CO2 for 30 minutes, then added with cAMP-d2 (5 μL, 1×) and Anti-cAMP-Cryptate (5 μL, 1×) and placed at room temperature for 1 hour. A HTRF value was determined by a chemiluminescence microplate reader, and the results were recorded. An activation curve was plotted using GraphPad Prism software to calculate an IC50 value of each polypeptide derivative. […] The IC50 values of some polypeptides were exemplarily shown in this example, see Table 3, FIG. 2 and FIG. 3 for details.

CTR = molecular target: T2, CTR (Homo sapiens, UniProt P30988); assay: HTRF cAMP assay, CTR; format: cell-based; details: HEK293/pGM-CREB-L-Luc/CTR pool, read-out: IC50 of receptor CTR
T2 construct: expressed in transfected cells
T2 sequence (P30988 25-474): T1 sequence (P30988 25-474)
Description: as §1, §2

[1] = Pharmacokinetic evaluation in SD rats; format: in vivo, male SD rat; details: plasma, rat
Method: 1. The pharmacokinetic behaviors of the polypeptide derivatives (i.e., AMY-001 to AMY-041) prepared in Example 1 and Example 2 in SD rats were tested.
Each polypeptide derivative (i.e., AMY-001 to AMY-041) was administered to male SD rat as a single injection via subcutaneous injection (SC, 3 mg/kg, with PBS as a medicament vehicle, a concentration of 1.5 mg/mL, and an administration volume of 2 mL) and intravenous injection (IV, 1 mg/kg, with PBS as a medicament vehicle, a concentration of 0.5 mg/mL, and an administration volume of 2 mL), respectively. After administration, whole blood samples were respectively collected from the jugular vein or other appropriate veins at selected time points. 0.2 mL of blood was collected and placed in a labeled EDTA-K2 anticoagulant tube. The tube was gently inverted up and down to ensure thorough mixing of the anticoagulant (EDTA-K2) with the blood, immediately placed on wet ice and centrifuged as soon as possible to separate plasma, and the centrifugation conditions were set to 4° C., 6800 g, and 6 minutes. Plasma samples were stored in a refrigerator at a temperature not exceeding −20° C. until subsequent analysis.
(§3) Under yellow light conditions in an ice water bath, (1) except for the blank sample, 300 μL of precipitant containing internal standard was added to a 96-well plate containing 20 μL of a standard curve sample, a quality control sample or an unknown sample; 300 μL of acetonitrile was added to the blank sample; (2) vortex mixing; (3) centrifugation; (4) 150 μL of supernatant was taken and added into a new 96-well plate, and then mixed well with 150 μL of ultrapure water; and (5) The above samples were quantitatively analyzed by using LC-MS analysis. Gradient elution was performed on a XB—C18 chromatographic column (2.1*100 mm, 3 μm), with the mobile phase as follows: mobile phase A=0.1% (volume percentage, v/v) formic acid-water; and mobile phase B=acetonitrile. Pharmacokinetic parameters were calculated using Phoenix WinNonlin software.

[2] = Pharmacokinetic evaluation in Cynomolgus macaques; format: in vivo, adult male Cynomolgus macaques; details: cynomolgus monkey, plasma, 0.2 mg/kg
Method: 2. The pharmacokinetic behaviors of the polypeptide derivatives (i.e., AMY-001 to AMY-041) prepared in Example 1 and Example 2 in Cynomolgus macaques were tested.
Each polypeptide derivatives (i.e., AMY-001 to AMY-041) was respectively administered to adult male Cynomolgus macaques as a single injection via subcutaneous injection (S.C., 0.2 mg/kg, with PBS as a medicament vehicle, a concentration of 0.2 mg/mL, […], with PBS as a medicament vehicle, a concentration of 0.2 mg/mL, and an administration volume of 1 mL), respectively. After administration, whole blood samples were respectively collected from the jugular vein or other appropriate veins at selected time points. 0.2 mL of blood was collected and placed in a labeled EDTA-K2 anticoagulant tube. The tube was gently inverted up and down to ensure thorough mixing of the anticoagulant (EDTA-K2) with the blood, immediately placed on wet ice and centrifuged as soon as possible to separate plasma, and the centrifugation conditions were set to 4° C., 6800 g, and 6 minutes. Plasma samples were stored in a refrigerator at a temperature not exceeding −20° C. for subsequent analysis.
as §3, with “the” for “The”, “A=0.1%” for “A=0.1% (volume percentage, v/v)”

[3] = background, in words; cited from earlier work
[4] = background, in words; cited from earlier work; remark: listed apart in the source

Structure (SMILES) | EC50 (AMY3R) [pM] | EC50 (CTR) [pM] | AUC(0-inf) ([1]; 1 mg/kg, IV (1 mpk)) [µg·h/mL] | clearance ([1]; 1 mg/kg, IV (1 mpk)) [mL/h/kg] | half-life ([1]; 1 mg/kg, IV (1 mpk)) [h] | AUC(0-inf) ([1]; 3 mg/kg, SC (3 mpk)) [µg·h/mL] | Cmax ([1]; 3 mg/kg, SC (3 mpk)) [ng/mL] | Tmax ([1]; 3 mg/kg, SC (3 mpk)) [h] | bioavailability ([1]; 3 mg/kg, SC (3 mpk)) [%] | half-life ([1]; 3 mg/kg, SC (3 mpk)) [h] | AUC(0-inf) ([2]; IV (0.2 mpk)) [µg·h/mL] | clearance ([2]; IV (0.2 mpk)) [mL/h/kg] | half-life ([2]; IV (0.2 mpk)) [h] | AUC(0-inf) ([2]; SC (0.2 mpk)) [µg·h/mL] | Cmax ([2]; SC (0.2 mpk)) [ng/mL] | Tmax ([2]; SC (0.2 mpk)) [h] | bioavailability ([2]; SC (0.2 mpk)) [%] | half-life ([2]; SC (0.2 mpk)) [h] | in-vivo half-life [3] | stability [4]
CC(=O)N[C@@H](C)C(=O)N[C@@H](CO)C(=O)N[C@@H](Cc1c[nH]cn1)C(=O)N[C@@H](CC(C)C)C(=O)N[C@@H](CO)C(=O)N[C@H](C(=O)N[C@@H](C)C(=O)N[C@H]1CSCC(=O)NCCN(C(=O)CCC(=O)NCCOCCOCC(=O)NCCOCCOCC(=O)NCCCC[C@H](NC(=O)CCCCCCCCCCCCCCCCCCC(=O)O)C(=O)O)CCNC(=O)CSC[C@@H](C(=O)N[C@@H](CC(C)C)C(=O)N[C@@H](Cc2c[nH]cn2)C(=O)N[C@@](C)(CCCCN)C(=O)N[C@@H](CC(C)C)C(=O)NC(C)(C)C(=O)N[C@@H](CC(=O)O)C(=O)N[C@@H](Cc2ccc(O)cc2)C(=O)N2CCC[C@H]2C(=O)N(C)[C@@H](CCCNC(=N)N)C(=O)N[C@H](C(=O)N[C@@H](CC(=O)O)C(=O)N[C@H](C(=O)NCC(=O)N[C@@H](C)C(=O)NCC(=O)N[C@@H](CO)C(=O)N2C[C@H](O)C[C@H]2C(N)=O)C(C)C)[C@@H](C)O)NC(=O)[C@H](C)NC(=O)[C@H](CO)NC(=O)[C@H](CC(C)C)NC(=O)[C@H](CCCNC(=N)N)NC(=O)CNC(=O)[C@H](CC(C)C)NC1=O)[C@@H](C)O [AMY-011, Ac-ASHLSTACLGRLSACLH-(αMeK)-L-Aib-DYP-(N-Me-R)-TDVGAGS-Hyp-NH2] (Ac-ASHLSTACLGRLSACLH[αMeK]L[Aib]DYP[NMeR]TDVGAGS[Hyp]-NH2; linker 8-15 via X1) | 4.8 | 12.2 | 143 | 7.02 | 15.5 | 283 | 6830 | 8 | 65.9 | 15.6 |  |  |  |  |  |  |  |  |  | 
CC(=O)N[C@@H](C)C(=O)N[C@@H](CO)C(=O)N[C@@H](Cc1c[nH]cn1)C(=O)N[C@@H](CC(C)C)C(=O)N[C@@H](CO)C(=O)N[C@H](C(=O)N[C@@H](C)C(=O)N[C@H]1CSCC(=O)NCCN(C(=O)CCC(=O)NCCOCCOCC(=O)NCCOCCOCC(=O)NCCCC[C@H](NC(=O)CCCCCCCCCCCCCCCCCCC(=O)O)C(=O)O)CCNC(=O)CSC[C@@H](C(=O)N[C@@H](CC(C)C)C(=O)N[C@@H](Cc2c[nH]cn2)C(=O)N[C@@](C)(CCCCN)C(=O)N[C@@H](CC(C)C)C(=O)NC(C)(C)C(=O)N[C@@H](CC(=O)O)C(=O)N[C@@H](Cc2ccc(O)cc2)C(=O)N2CCC[C@H]2C(=O)N[C@@H](CCC(N)=O)C(=O)N[C@H](C(=O)N[C@@H](CC(=O)O)C(=O)N[C@H](C(=O)NCC(=O)N[C@@H](C)C(=O)NCC(=O)N[C@@H](CO)C(=O)N2C[C@H](O)C[C@H]2C(N)=O)C(C)C)[C@@H](C)O)NC(=O)[C@H](C)NC(=O)[C@H](CO)NC(=O)[C@H](CC(C)C)NC(=O)[C@H](CCCNC(=N)N)NC(=O)CNC(=O)[C@H](CC(C)C)NC1=O)[C@@H](C)O [AMY-015, Ac-ASHLSTACLGRLSACLH-(αMeK)-L-Aib-DYPQTDVGAGS-Hyp-NH2] (Ac-ASHLSTACLGRLSACLH[αMeK]L[Aib]DYPQTDVGAGS[Hyp]-NH2; linker 8-15 via X1) |  |  | 286 | 3.52 | 20.5 | 567 | 11100 | 24 | 66.1 | 20.6 | 942 | 0.217 | 146 | 514 | 2260 | 24 | 54.5 | 143 |  | 
CC(C)C[C@H](NC(=O)[C@H](CCCCN)NC(=O)CNC(=O)[C@H](CC(C)C)NC(=O)[C@@H](NC(=O)[C@@H]1CSSC[C@H](N)C(=O)N[C@@H](CO)C(=O)N[C@@H](CC(N)=O)C(=O)N[C@@H](CC(C)C)C(=O)N[C@@H](CO)C(=O)N[C@@H]([C@@H](C)O)C(=O)N1)C(C)C)C(=O)N[C@@H](CO)C(=O)N[C@@H](CCC(N)=O)C(=O)N[C@@H](CCC(=O)O)C(=O)N[C@@H](CC(C)C)C(=O)N[C@@H](Cc1c[nH]cn1)C(=O)N[C@@H](CCCCN)C(=O)N[C@@H](CC(C)C)C(=O)N[C@@H](CCC(N)=O)C(=O)N[C@H](C(=O)N[C@@H](Cc1ccc(O)cc1)C(=O)N1CCC[C@H]1C(=O)N[C@@H](CCCNC(=N)N)C(=O)N[C@H](C(=O)N[C@@H](CC(N)=O)C(=O)N[C@H](C(=O)NCC(=O)N[C@@H](CO)C(=O)NCC(=O)N[C@H](C(=O)N1CCC[C@H]1C(N)=O)[C@@H](C)O)[C@@H](C)O)[C@@H](C)O)[C@@H](C)O [sCT] |  |  |  |  |  |  |  |  |  |  |  |  |  |  |  |  |  |  | short in-vivo half-life | poor stability
